# Experimental data taken from ChEMBL document CHEMBL1145285, “Design and crystal structures of protein kinase B-selective inhibitors in complex with protein kinase A and mutants” (J Med Chem, 2005).
# Legend:
# [1] = Inhibition protein kinase A
# [2] = Inhibition of protein kinase AB (PKB amino acid substitutions); assay type: protein assay
# [3] = target: cAMP-dependent protein kinase catalytic subunit alpha (Bos taurus) (UniProt P00517); assay: Binding constant for protein kinase AB3 (3 PKB amino acid substitutions)
# [4] = target: cAMP-dependent protein kinase catalytic subunit alpha (Bos taurus) (UniProt P00517); assay: Binding constant for protein kinase AB5 (5 PKB amino acid substitutions)
IC50 [1],IC50 [2],Kd [3],Kd [4],Compound
1.9 µM,0.02 µM,0.077 µM,0.008 µM,CC1(C)CCCN(c2ccc(O)c(C(=O)c3ccc(C(=O)N[C@@H]4CCCNC[C@H]4NC(=O)c4ccncc4)cc3)c2)C1.Cl.Cl.Cl
2.4 µM,0.75 µM,3.77 µM,0.26 µM,CC1(C)CCCNC1c1ccc(O)c(C(=O)c2ccc(C(=O)N[C@@H]3CCCNC[C@H]3NC(=O)c3ccncc3)cc2)c1F.Cl.Cl.Cl (stereo partly specified)
0.03 µM,0.023 µM,0.041 µM,–,CN(C)c1ccc(O)c(C(=O)c2ccc(C(=O)N[C@@H]3CCCNC[C@H]3NC(=O)c3ccncc3)cc2)c1.Cl.Cl.Cl
–,0.04 µM,–,–,CC1(C)CCN(c2ccc(O)c(C(=O)c3ccc(C(=O)N[C@@H]4CCCNC[C@H]4NC(=O)c4ccncc4)cc3)c2)CC1.Cl.Cl.Cl
0.4 µM,0.02 µM,0.193 µM,0.009 µM,Cl.Cl.Cl.O=C(N[C@@H]1CCCNC[C@H]1NC(=O)c1ccncc1)c1ccc(C(=O)c2cc(N3CCCCC3)ccc2O)cc1
